Assay results from patent publication US20220144815A1, “1,3,4-OXADIAZOLES AND THEIR DERIVATIVES AS NEW ANTIFUNGAL AGENTS” (Bayer Aktiengesellschaft, priority 2018, published 2022).

Test: Log P by HPLC on reversed phase columns, method [a] (EEC directive 79/831 Annex V.A8)
Assay type: physicochemical
Settings: reversed phase HPLC column; method [a], HPLC on reversed phase columns; read-out: logP
How it was run: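 Log P calibrated with C3–C16 straight-chain alkan-2-ones of known Log P, interpolating linearly between retention times. Method per EEC 79/831 Annex V.A8: reversed-phase LC-UV in the acidic range, water/0.1% formic acid and acetonitrile gradient from 10% to 95% acetonitrile.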

chromatographic logP	SMILES
0.91	CC(C)(Nc1ncc(-c2nnc(C(F)F)o2)cn1)c1cccnc1 [I.199, 5-[5-(difluoromethyl)-1,3,4-oxadiazol-2-yl]-N-[2-(pyridin-3-yl)propan-2-yl]pyrimidin-2-amine]
2.84	Fc1ccc(CCNc2ncc(-c3nnc(C(F)F)o3)cn2)cc1 [I.200, 5-[5-(difluoromethyl)-1,3,4-oxadiazol-2-yl]-N-[2-(4-fluorophenyl)ethyl]pyrimidin-2-amine]
2.99	FC(F)c1nnc(-c2cnc(NC3(Cc4ccccc4)CC3)nc2)o1 [I.201, N-(1-benzylcyclopropyl)-5-[5-(difluoromethyl)-1,3,4-oxadiazol-2-yl]pyrimidin-2-amine]
2.95	Cc1cccc(C2(Nc3ncc(-c4nnc(C(F)F)o4)cn3)CC2)c1 [I.202, 5-[5-(difluoromethyl)-1,3,4-oxadiazol-2-yl]-N-[1-(3-methylphenyl)cyclopropyl]pyrimidin-2-amine]
0.93	Cc1ccnc(C2(Nc3ncc(-c4nnc(C(F)F)o4)cn3)CC2)c1 [I.203, 5-[5-(difluoromethyl)-1,3,4-oxadiazol-2-yl]-N-[1-(4-methylpyridin-2-yl)cyclopropyl]pyrimidin-2-amine]
3.46	Cc1ccc(C(C)(C)Nc2ncc(-c3nnc(C(F)F)o3)cn2)cc1 [I.204, 5-[5-(difluoromethyl)-1,3,4-oxadiazol-2-yl]-N-[2-(4-methylphenyl)propan-2-yl]pyrimidin-2-amine]
3.28	Cc1ccccc1C(C)(C)Nc1ncc(-c2nnc(C(F)F)o2)cn1 [I.205, 5-[5-(difluoromethyl)-1,3,4-oxadiazol-2-yl]-N-[2-(2-methylphenyl)propan-2-yl]pyrimidin-2-amine]
3.18	FC(F)c1nnc(-c2cnc(NC3(c4ccco4)CCCC3)nc2)o1 [I.208, 5-[5-(difluoromethyl)-1,3,4-oxadiazol-2-yl]-N-[1-(2-furyl)cyclopentyl]pyrimidin-2-amine]
3.19	CC(C)(Nc1ncc(-c2nnc(C(F)F)o2)cn1)c1ccccc1F [I.212, 5-[5-(difluoromethyl)-1,3,4-oxadiazol-2-yl]-N-[2-(2-fluorophenyl)propan-2-yl]pyrimidin-2-amine]
3.8	Cc1cccc(C)c1C1(Nc2ncc(-c3nnc(C(F)F)o3)cn2)CC1 [I.216, 5-[5-(difluoromethyl)-1,3,4-oxadiazol-2-yl]-N-[1-(2,6-dimethylphenyl)cyclopropyl]pyrimidin-2-amine]
1.29	FC(F)c1nnc(-c2cnc(NC3(c4cccnc4)CCCC3)nc2)o1 [I.218, 5-[5-(difluoromethyl)-1,3,4-oxadiazol-2-yl]-N-[1-(pyridin-3-yl)cyclopentyl]pyrimidin-2-amine]
1.38	FC(F)c1nnc(-c2cnc(NC3(c4ccccn4)CCCC3)nc2)o1 [I.219, 5-[5-(difluoromethyl)-1,3,4-oxadiazol-2-yl]-N-[1-(pyridin-2-yl)cyclopentyl]pyrimidin-2-amine]
3.33	Fc1ccc(C2(Nc3ncc(-c4nnc(C(F)F)o4)cn3)CCC2)cc1 [I.220, 5-[5-(difluoromethyl)-1,3,4-oxadiazol-2-yl]-N-[1-(4-fluorophenyl)cyclobutyl]pyrimidin-2-amine]
3.98	CN(c1ncc(-c2nnc(C(F)F)o2)cn1)C1(c2ccccc2F)CC1 [I.221, 5-[5-(difluoromethyl)-1,3,4-oxadiazol-2-yl]-N-[1-(2-fluorophenyl)cyclopropyl]-N-methylpyrimidin-2-amine]
1.92	COC(=O)C(Nc1ncc(-c2nnc(C(F)F)o2)cn1)c1ccccn1 (stereo not shown) [I.222, methyl ({5-[5-(difluoromethyl)-1,3,4-oxadiazol-2-yl]pyrimidin-2-yl}amino)(pyridin-2-yl)acetate]
3.79	CC(C)(Cc1ccc(F)cc1)Nc1ncc(-c2nnc(C(F)F)o2)cn1 [I.223, 5-[5-(difluoromethyl)-1,3,4-oxadiazol-2-yl]-N-[1-(4-fluorophenyl)-2-methylpropan-2-yl]pyrimidin-2-amine]
